ChEMBL document CHEMBL4619707, “Synthesis and biological investigation of triazolopyridinone derivatives as potential multireceptor atypical antipsychotics” (Bioorg Med Chem Lett, 2020)
pEC50, pIC50: −log10 of the molar value. Values after ≈ are worked out from the molar mass of the structure shown. Active and inactive are the calls of the source. The calls are words filed in the database; no cut-off is given here.

Assays:
[1] = target: T1, 5-hydroxytryptamine receptor 1A (Homo sapiens, UniProt P08908); assay: Agonist activity at 5HT1A receptor (unknown origin) by calcium-dye based FLIPR assay; assay type: functional
T1 sequence (P08908 whole entry): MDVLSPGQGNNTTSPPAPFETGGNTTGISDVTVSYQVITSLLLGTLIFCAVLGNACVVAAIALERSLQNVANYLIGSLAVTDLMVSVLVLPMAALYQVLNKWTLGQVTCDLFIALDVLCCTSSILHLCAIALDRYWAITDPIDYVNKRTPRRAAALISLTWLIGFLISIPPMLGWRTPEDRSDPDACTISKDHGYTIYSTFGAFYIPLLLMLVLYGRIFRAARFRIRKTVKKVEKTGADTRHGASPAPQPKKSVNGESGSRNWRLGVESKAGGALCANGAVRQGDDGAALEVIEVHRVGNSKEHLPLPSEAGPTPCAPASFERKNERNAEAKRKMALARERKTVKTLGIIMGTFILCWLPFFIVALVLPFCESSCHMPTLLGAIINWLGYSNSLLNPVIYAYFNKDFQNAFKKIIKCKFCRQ

[2] = target: 5-hydroxytryptamine receptor 2A (Homo sapiens, UniProt P28223); assay: Antagonist activity at 5HT2A receptor (unknown origin) by HTRF cAMP assay; assay type: functional
[3] = target: Voltage-gated inwardly rectifying potassium channel KCNH2 (Homo sapiens, UniProt Q12809); assay: Inhibition of human ERG
Mus musculus [4] = assay: Antipsychotic activity in ICR mouse assessed as inhibition of quipazine-induced head-twitch response at 0.3 mg/kg, po administered with compound after quipazine administration measured for 15 mins; assay type: functional, organism-based
[5] = target: Muscarinic acetylcholine receptor M3 (Homo sapiens, UniProt P20309); assay: Antagonist activity at muscarinic M3 receptor (unknown origin); assay type: ADME
[6] = target: T2, 5-hydroxytryptamine receptor 2C (Homo sapiens, UniProt P28335); assay: Antagonist activity at 5-HT2C receptor (unknown origin)
T2 sequence (P28335 whole entry): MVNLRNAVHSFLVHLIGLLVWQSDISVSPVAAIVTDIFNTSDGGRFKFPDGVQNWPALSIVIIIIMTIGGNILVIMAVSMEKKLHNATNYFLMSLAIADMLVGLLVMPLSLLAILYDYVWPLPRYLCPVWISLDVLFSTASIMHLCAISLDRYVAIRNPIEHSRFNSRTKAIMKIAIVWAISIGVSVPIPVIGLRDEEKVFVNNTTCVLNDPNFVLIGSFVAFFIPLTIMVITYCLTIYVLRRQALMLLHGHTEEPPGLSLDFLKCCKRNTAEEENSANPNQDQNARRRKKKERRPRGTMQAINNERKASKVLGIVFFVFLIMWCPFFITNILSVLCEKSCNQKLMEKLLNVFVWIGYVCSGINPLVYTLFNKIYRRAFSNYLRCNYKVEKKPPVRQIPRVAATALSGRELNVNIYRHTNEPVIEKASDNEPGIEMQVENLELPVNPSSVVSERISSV

D(2) dopamine receptor [7] = target: T3, D(2) dopamine receptor (Homo sapiens, UniProt P14416); assay: Agonist activity at D2 receptor (unknown origin)
D(2) dopamine receptor [8] = target: T3, D(2) dopamine receptor; assay: Agonist activity at D2 receptor (unknown origin) relative to 10 uM dopamine
HEK293 = assay: Cytotoxicity against human HEK293 cells assessed as reduction in cell viability; assay type: cell-based
[9] = Cytotoxicity against human Chang cells assessed as reduction in cell viability; assay type: cell-based
[10] = Toxicity in mouse assessed as sedation by measuring spontaneous locomotor activity at 3 to 10 mg/kg, po; assay type: organism-based; settings: in vivo
Mus musculus [11] = assay: Antipsychotic activity in po dosed mouse assessed as inhibition of phencyclidine-induced hyperlocomotion administered with compound after phencyclidine challenge measured for 75 mins; assay type: functional, organism-based
Histamine H1 receptor = Histamine H1 receptor (Homo sapiens, UniProt P35367); assay: Antagonist activity at H1 receptor (unknown origin); assay type: ADME
[12] = Toxicity in mouse assessed as sedation by measuring spontaneous locomotor activity at 0.3 mg/kg, po; assay type: organism-based; settings: in vivo
Mus musculus [13] = assay: Antipsychotic activity in po dosed ICR mouse assessed as inhibition of quipazine-induced head-twitch response administered with compound after quipazine administration measured for 15 mins; assay type: functional, organism-based
[14] = target: Sodium-dependent serotonin transporter (Homo sapiens) (UniProt P31645); settings: 400 nM
Sequence of Sodium-dependent serotonin transporter (Homo sapiens) (P31645 whole entry, looked up): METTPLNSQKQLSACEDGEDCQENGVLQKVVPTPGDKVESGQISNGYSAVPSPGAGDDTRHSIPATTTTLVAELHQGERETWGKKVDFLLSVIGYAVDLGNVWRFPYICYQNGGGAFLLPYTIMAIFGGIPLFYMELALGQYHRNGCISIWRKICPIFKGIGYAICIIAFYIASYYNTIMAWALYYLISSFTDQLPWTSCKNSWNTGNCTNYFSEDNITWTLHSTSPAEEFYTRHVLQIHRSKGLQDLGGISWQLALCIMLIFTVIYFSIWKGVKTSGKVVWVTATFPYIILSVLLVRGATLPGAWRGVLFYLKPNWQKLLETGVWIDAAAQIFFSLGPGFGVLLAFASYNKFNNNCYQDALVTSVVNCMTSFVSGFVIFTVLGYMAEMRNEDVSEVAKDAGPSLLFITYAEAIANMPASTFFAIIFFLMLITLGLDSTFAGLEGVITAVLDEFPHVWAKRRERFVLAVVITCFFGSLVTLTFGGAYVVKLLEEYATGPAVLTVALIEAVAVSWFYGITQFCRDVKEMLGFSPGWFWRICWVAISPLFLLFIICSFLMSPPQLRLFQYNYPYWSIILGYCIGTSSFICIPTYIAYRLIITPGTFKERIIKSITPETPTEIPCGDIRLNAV
Description: Antagonist activity at SERT receptor (unknown origin) at 400 nM by fluorescence based assay relative to control

Sequence of Muscarinic acetylcholine receptor M3 (P20309 whole entry): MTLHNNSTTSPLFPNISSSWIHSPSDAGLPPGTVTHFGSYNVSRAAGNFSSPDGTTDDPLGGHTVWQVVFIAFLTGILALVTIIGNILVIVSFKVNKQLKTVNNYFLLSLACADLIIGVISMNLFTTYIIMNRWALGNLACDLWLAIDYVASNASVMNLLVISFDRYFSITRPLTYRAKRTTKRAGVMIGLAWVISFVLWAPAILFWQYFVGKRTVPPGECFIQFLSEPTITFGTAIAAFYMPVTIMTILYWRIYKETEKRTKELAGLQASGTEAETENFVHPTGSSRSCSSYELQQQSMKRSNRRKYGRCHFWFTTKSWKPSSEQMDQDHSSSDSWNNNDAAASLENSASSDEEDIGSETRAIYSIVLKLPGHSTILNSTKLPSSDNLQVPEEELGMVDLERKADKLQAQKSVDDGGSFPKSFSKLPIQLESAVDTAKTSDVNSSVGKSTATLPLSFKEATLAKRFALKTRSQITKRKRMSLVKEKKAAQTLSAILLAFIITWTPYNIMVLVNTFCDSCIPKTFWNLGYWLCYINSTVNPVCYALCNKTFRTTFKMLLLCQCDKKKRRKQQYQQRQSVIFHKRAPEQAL
T3 sequence (P14416 whole entry): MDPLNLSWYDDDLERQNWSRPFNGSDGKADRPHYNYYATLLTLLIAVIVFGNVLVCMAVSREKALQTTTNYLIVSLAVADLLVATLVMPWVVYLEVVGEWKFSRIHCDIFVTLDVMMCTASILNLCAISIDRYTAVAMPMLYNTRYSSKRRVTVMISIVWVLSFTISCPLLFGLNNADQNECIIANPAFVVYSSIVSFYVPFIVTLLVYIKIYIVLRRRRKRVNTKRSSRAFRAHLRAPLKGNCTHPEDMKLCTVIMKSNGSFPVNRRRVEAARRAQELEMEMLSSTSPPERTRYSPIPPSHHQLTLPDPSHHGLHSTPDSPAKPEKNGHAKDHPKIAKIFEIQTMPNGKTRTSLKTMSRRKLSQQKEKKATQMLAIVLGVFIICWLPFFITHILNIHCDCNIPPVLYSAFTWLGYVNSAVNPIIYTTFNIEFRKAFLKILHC
Sequence of Voltage-gated inwardly rectifying potassium channel KCNH2 (Q12809 whole entry): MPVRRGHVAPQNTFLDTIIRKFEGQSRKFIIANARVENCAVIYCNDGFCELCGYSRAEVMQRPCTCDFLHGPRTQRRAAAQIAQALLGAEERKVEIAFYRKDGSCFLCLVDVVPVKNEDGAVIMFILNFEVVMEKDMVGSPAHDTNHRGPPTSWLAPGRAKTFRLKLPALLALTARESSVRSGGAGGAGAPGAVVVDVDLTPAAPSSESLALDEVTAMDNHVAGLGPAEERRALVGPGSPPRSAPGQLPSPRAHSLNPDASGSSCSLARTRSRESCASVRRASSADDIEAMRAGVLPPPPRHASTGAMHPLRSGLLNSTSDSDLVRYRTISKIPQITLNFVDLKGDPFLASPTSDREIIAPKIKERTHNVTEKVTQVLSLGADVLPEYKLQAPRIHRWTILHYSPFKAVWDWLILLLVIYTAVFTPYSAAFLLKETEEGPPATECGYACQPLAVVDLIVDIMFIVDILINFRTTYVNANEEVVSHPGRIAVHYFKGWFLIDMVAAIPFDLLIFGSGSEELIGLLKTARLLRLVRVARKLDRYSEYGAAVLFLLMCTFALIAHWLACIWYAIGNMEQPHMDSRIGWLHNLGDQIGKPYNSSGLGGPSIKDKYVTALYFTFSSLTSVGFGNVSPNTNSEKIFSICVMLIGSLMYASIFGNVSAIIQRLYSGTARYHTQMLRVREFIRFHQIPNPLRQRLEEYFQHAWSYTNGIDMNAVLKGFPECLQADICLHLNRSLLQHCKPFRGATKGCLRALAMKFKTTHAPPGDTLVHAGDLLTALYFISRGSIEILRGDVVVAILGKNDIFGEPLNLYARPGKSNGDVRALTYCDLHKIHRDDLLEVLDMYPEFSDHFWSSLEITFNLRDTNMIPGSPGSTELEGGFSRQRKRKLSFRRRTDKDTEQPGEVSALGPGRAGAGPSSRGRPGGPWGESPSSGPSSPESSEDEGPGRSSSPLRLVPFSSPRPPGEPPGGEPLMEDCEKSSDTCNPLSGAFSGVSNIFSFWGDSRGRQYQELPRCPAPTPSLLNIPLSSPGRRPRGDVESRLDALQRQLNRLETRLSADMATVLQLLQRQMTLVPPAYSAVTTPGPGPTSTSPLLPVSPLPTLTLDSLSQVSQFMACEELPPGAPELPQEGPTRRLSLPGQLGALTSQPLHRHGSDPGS
Sequence of 5-hydroxytryptamine receptor 2A (P28223 whole entry): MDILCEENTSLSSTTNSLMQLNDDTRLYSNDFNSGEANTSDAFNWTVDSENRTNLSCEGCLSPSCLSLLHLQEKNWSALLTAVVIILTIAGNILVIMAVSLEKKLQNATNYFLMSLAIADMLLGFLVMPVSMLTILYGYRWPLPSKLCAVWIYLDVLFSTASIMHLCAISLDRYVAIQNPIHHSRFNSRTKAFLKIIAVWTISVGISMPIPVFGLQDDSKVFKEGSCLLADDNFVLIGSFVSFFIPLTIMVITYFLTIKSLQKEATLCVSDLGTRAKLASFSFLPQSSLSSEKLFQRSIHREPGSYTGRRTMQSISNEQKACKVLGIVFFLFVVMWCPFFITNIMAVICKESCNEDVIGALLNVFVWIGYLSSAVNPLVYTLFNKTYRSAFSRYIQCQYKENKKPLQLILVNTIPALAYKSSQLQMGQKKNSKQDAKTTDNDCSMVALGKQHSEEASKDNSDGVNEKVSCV
Sequence of Histamine H1 receptor (P35367 whole entry): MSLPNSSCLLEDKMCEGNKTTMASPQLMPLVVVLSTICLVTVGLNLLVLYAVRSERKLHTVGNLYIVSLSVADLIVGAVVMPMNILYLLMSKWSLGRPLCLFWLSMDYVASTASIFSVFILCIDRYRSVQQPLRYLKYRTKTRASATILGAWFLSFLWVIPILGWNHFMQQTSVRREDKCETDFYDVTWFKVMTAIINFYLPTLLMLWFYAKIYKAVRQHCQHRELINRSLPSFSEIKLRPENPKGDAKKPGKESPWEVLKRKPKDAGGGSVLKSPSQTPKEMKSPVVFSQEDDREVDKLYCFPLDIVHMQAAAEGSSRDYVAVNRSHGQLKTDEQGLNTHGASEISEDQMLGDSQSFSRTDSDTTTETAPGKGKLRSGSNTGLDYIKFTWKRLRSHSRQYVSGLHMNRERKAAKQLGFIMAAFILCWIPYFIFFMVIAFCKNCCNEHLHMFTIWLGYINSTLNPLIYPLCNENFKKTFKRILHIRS

| Structure (SMILES) | pEC50 [1] | pIC50 [2] | further results |
| --- | --- | --- | --- |
| O=c1n(CCCCN2CCN(c3cccc4sccc34)CC2)nc2ccc(Cl)cn12 | 8.02 | 6.84 |  |
| O=c1n(CCCCN2CCN(c3cccc4sccc34)CC2)nc2c(Br)cccn12 | 8.15 | 6.88 |  |
| O=c1n(CCCCN2CCN(c3cccc4sccc34)CC2)nc2c(Cl)cc(Cl)cn12 | 10.00 | 6.19 |  |
| O=c1n(CCCCN2CCN(c3cccc4sccc34)CC2)nc2c(F)cccn12 | 8.74 | 7.45 | pIC50 [3]: 5.66; inhibition (Mus musculus [4]): Active; pIC50 [5]: < 5.00; pIC50 [6]: 5.68 |
| COc1cccc2nn(CCCCN3CCN(c4cccc5sccc45)CC3)c(=O)n12 | 8.70 | 7.89 | inhibition (Mus musculus [4]): Active |
| O=c1ccc2ccc(OCCCCN3CCN(c4cccc5sccc45)CC3)cc2[nH]1 [BREXPIPRAZOLE] |  |  | pEC50 (D(2) dopamine receptor [7]; read-out: EC50): 8.20; Emax (D(2) dopamine receptor [8]): 29%; IC50 (HEK293): 19.1 µg/mL (≈ 44.1 µM); IC50 [9]: 44.2 µg/mL (≈ 102 µM) |
| N#Cc1ccn2c(=O)n(CCCCN3CCN(c4cccc5sccc45)CC3)nc2c1 | 8.23 | 6.14 |  |
| O=c1n(CCCCN2CCN(c3cccc4sc(F)cc34)CC2)nc2c(F)cccn12 | 8.82 | 5.97 |  |
| N#Cc1cccc2nn(CCCCN3CCN(c4cccc5sccc45)CC3)c(=O)n12 | 7.69 | 6.98 |  |
| O=c1n(CCCCN2CCN(c3cccc4sccc34)CC2)nc2ccccn12 | 8.74 to 8.77 | 7.47 | pIC50 [3]: 5.52; inhibition (Mus musculus [4]): Active; Activity [10]: Toxic; inhibition (Mus musculus [11]): Dose-dependent effect; pIC50 (Histamine H1 receptor): 7.05; IC50 (HEK293): 108 µg/mL (≈ 265 µM); Activity [12]: Non-Toxic; pIC50 [5]: < 5.00; inhibition (Mus musculus [13]): Dose-dependent effect; pIC50 [6]: < 5.00 |
| COc1cccn2c(=O)n(CCCCN3CCN(c4cccc5sccc45)CC3)nc12 | 8.66 | 7.07 |  |
| O=c1n(CCCCN2CCN(c3cccc4sccc34)CC2)nc2ccc(F)cn12 | 10.00 | 7.33 |  |
| O=c1n(CCCCN2CCN(c3cccc4scnc34)CC2)nc2c(F)cccn12 | 10.00 | 7.11 |  |
| N#Cc1ccc2nn(CCCCN3CCN(c4cccc5sccc45)CC3)c(=O)n2c1 | 8.01 | 7.96 | pIC50 [3]: 5.98; pIC50 (Histamine H1 receptor): 7.12; pIC50 [5]: < 5.00; pIC50 [6]: 5.48 |
| O=c1n(CCCCN2CCC(c3cc(F)cc4oncc34)CC2)nc2ccccn12 | < 5.00 | 7.82 |  |
| O=c1n(CCCCN2CCN(c3cccc4sccc34)CC2)nc2c(F)cc(F)cn12 | 8.92 | 7.57 |  |
| O=c1n(CCCCN2CCN(c3cccc4sccc34)CC2)nc2c(Cl)cccn12 | 7.92 | 6.43 |  |
| O=c1n(CCCCN2CCN(c3cccc4scnc34)CC2)nc2ccccn12 | 8.55 | 5.56 |  |
| O=C1CCc2ccc(OCCCCN3CCN(c4cccc(Cl)c4Cl)CC3)cc2N1 |  |  | inhibition (Mus musculus [4]): Active; inhibition [14]: 21% |
| O=c1n(CCCN2CCN(c3cccc(Cl)c3)CC2)nc2ccccn12 [TRAZODONE] |  |  | EC50 (D(2) dopamine receptor [7]): Not Active; Emax (D(2) dopamine receptor [8]): < 20% |
| N#Cc1cccn2c(=O)n(CCCCN3CCN(c4cccc5sccc45)CC3)nc12 | 8.85 | 6.81 |  |
| Cc1nc2n(c(=O)c1CCN1CCC(c3noc4cc(F)ccc34)CC1)CCCC2 [RISPERIDONE] |  |  | EC50 (D(2) dopamine receptor [7]): Not Active; Emax (D(2) dopamine receptor [8]): < 20%; IC50 (HEK293): > 600 µg/mL; IC50 [9]: 239 µg/mL (≈ 582 µM) |
